From patent US20230130103A1, “TARGETED PHARMACOLOGICAL THERAPEUTICS IN UVEAL MELANOMA” (Washington University, priority 2017, published 2023)
Starred links: 1 amine or outer side, 2 acyl side, 3 side chain; linkers in the order of their positions; H or OH if unused. Positions of bridges follow the written chain, without caps; N, C: chain ends. Non-standard residues stand in square brackets, D forms with d. Residues, ends and D or L forms follow the SMILES beside them. *: point of attachment. Leu(3R-OH,Nα-propionyl) = CCC(=O)N[C@H](C(=O)*)[C@H](O)C(C)C; X1 = CC(C)[C@@H](O[*:3])[C@H](N[*:1])C(=O)[*:2]; X2 = CC(C)[C@H](O[*:3])[C@@H](N[*:1])C(=O)[*:2]; NMeaThr = CN[C@H](C(=O)O)[C@H](C)O; dPhLac = O=C(O)[C@H](O)Cc1ccccc1; NMeA = CN[C@@H](C)C(=O)O; NMeDha = C=C(NC)C(=O)O

System: 92.1 UM cells
Test: Gene Set Enrichment Analysis (GSEA) of RNA-Seq data
Assay type: cell-based, Human
[1] = gene set REACTOME_ADAPTIVE_IMMUNE_SYSTEM
[2] = gene set REACTOME_APC_C_CDC20_MEDIATED_DEGRADATION_OF_MITOTIC_PROTEINS
[3] = gene set REACTOME_APC_C_CDH1_MEDIATED_DEGRADATION_OF_CDC20_AND_OTHER_APC_C_CDH1_TARGETED_PROTEINS_IN_LATE_MITOSIS_EARLY_G1
[4] = gene set REACTOME_B[?]_INFECTION
[5] = gene set REACTOME_CHOLESTEROL_BIOSYNTHESIS
[6] = gene set REACTOME_DOUBLE_STRAND_BREAK_REPAIR
[7] = gene set REACTOME_E2F_MEDIATED_REGULATION_OF_DNA_REPLICATION
[8] = gene set REACTOME_EXTENSION_OF_TELOMERES
[9] = gene set REACTOME_FACTORS_INVOLVED_IN_MEGAKARYOCYTE_DEVELOPMENT_AND_PLATELET_PRODUCTION
[10] = gene set REACTOME_G0_AND_EARLY_G1
[11] = gene set REACTOME_HOST_INTERACTIONS_HIV_FACTORS
[12] = gene set REACTOME_LICAM_INTERACTIONS
[13] = gene set REACTOME_METABOLISM_OF_NON_CODING_RNA
[14] = gene set REACTOME_PREFOLDIN_MEDIATED_TRANSFER_OF_SUBSTRATE_TO_CCT_TRIC
[15] = gene set REACTOME_TRANSPORT_OF_MATURE_MRNA_DERIVED_FROM_AN_INTRONLESS_TRANSCRIPT
[16] = gene set REACTOME_[?]_REMOVAL_FROM_CHROMATIN
[17] = gene set REACTOM_GLUCONE_TRANSPORT
[18] = gene set RMEIN_GLUCOCORTICOID_THERAPY_DN
[19] = gene set SAKAL_CHRONIC_HEPATITIS_VS_LIVER_CANCER_UP
[20] = gene set SASAKI_ADULT_T_CELL_LEUKEMIA
[21] = gene set SASSON_RESPONSE_TO_FORSKOLIN_UP
[22] = gene set SASSON_RESPONSE_TO_GONADOTRPHINS_UP
[23] = gene set SCHMIDT_FOR_TARGETS_IN_LIMB_BUD_UP
[24] = gene set SCIBETTA_KDMS8_TARGETS_DN
[25] = gene set SENESE_HDAC1_TARGETS_UP
[26] = gene set SENESE_HDAC2_TARGETS_UP
[27] = gene set SHEPARD_CRUSH_AND_BURN_MUTANT_DN
[28] = gene set SMIRNOV_RESPONSE_TO_IR_6HR_DN
[29] = gene set WAKASUGI_HAVE_ZNF143_BINDING_SITES
[30] = gene set WELSCH_BRCA1_TARGETS_DN
[31] = gene set WHITFIELD_CELL_CYCLE_5
[32] = gene set WHITFIELD_CELL_CYCLE_M_G2
[33] = gene set [?]_APOPTOSIS_BY_REOVIRUS_INFECTION_DN
[34] = gene set [?]_E2F3_ONCOGENIC_SIGNATURE
[35] = gene set [?]_ESTRADIOL_RESPONSE_6HR_UP
[36] = gene set [?]_HYPOXIA_NOT_VIA_[?]
[37] = gene set [?]_OVARIAN_CANCER_INVAVSIVE_VS_LMP_UP
[38] = gene set [?]_PSEUDOPODIA_HAPTOTAXIS_DN
[39] = gene set […]_NEUTROPHIL_AT_SKIN_WOUND_DN
[40] = gene set mARTORIATE_MDM4_TARGETS_FETAL_LIVER_DN

C=C1C(=O)N[C@@H](C)C(=O)N(C)[C@@H](C)C(=O)N[C@H]([C@@H](OC(=O)[C@@H](NC(=O)CC)[C@H](O)C(C)C)C(C)C)C(=O)N(C)[C@@H]([C@H](C)OC)C(=O)O[C@H](C(C)C)[C@H](NC(C)=O)C(=O)O[C@H](Cc2ccccc2)C(=O)N1C [FR, [(1S)-1-[(3S,6R,9S,12S,18R,21S,22R)-21-acetamido-18-benzyl-3-[(1S)-1-methoxyethyl]-4,9,10,12,16-pentamethyl-15-methylidene-2,5,8,11,14,17,20-heptaoxo-22-propan-2-yl-1,19-dioxa-4,7,10,13,16-pentazacyclodocos-6-yl]-2-methylpropyl] (2S,3R)-3-hydroxy-4-methyl-2-(propanoylamino)pentanoate] (Ac-[X1][dPhLac][NMeDha]A[NMeA][X2](Leu(3R-OH,Nα-propionyl))[NMeaThr](Me); ester 1-C)
ES [1]: 0.3979 | NES [1]: 2.13 | ES [2]: 0.5518 | NES [2]: 2.142 | ES [3]: 0.56 | NES [3]: 2.187 | ES [4]: 0.4639 | NES [4]: 2.188 | ES [5]: 0.6781 | NES [5]: 2.138 | ES (gene set REACTOME_DNA_REPAIR): 0.4835 | NES (gene set REACTOME_DNA_REPAIR): 2.1 | ES [6]: 0.6821 | NES [6]: 2.156 | ES [7]: 0.5585 | NES [7]: 2.256 | ES [8]: 0.6128 | NES [8]: 2.062 | ES [9]: 0.4943 | NES [9]: 2.346 | ES [10]: 0.5589 | NES [10]: 2.109 | ES [11]: 0.4871 | NES [11]: 2.139 | ES [12]: 0.4901 | NES [12]: 2.064 | ES [13]: 0.5725 | NES [13]: 2.142 | ES (gene set REACTOME_NEP_NS2_INTERACTS_WITH_THE_CELLULAR_EXPORT_MACHINERY): 0.6472 | ES [14]: 0.6276 | NES [14]: 2.059 | ES [15]: 0.6258 | NES [15]: 2.187 | ES [16]: 0.5346 | NES [16]: 2.104 | ES [17]: 0.6343 | NES [17]: 2.211 | NES (gene set REN_ALVEOLAR_RHABDOMYOSARCOMA_DN): 2.084 | ES [18]: 0.429 | NES [18]: 2.253 | ES [19]: 0.4953 | NES [19]: 2.051 | ES [20]: 0.4693 | NES [20]: 2.213 | ES [21]: 0.4936 | NES [21]: 2.087 | ES [22]: 0.5309 | NES [22]: 2.23 | ES [23]: 0.6919 | NES [23]: 2.232 | ES [24]: 0.4986 | NES [24]: 2.107 | ES [25]: 0.4141 | NES [25]: 2.222 | ES [26]: 0.4933 | NES [26]: 2.179 | ES (gene set SHEPARD_BMYB_TARGETS): 0.5123 | NES (gene set SHEPARD_BMYB_TARGETS): 2.125 | ES [27]: 0.4366 | NES [27]: 2.055 | NES (gene set SHIPP_D[?]CL_VS_FOLLICULAR_LYMPHOMA_UP): 2.142 | ES [28]: 0.4874 | NES [28]: 2.135 | ES (gene set SP1_Q4_01): 0.4346 | NES (gene set SP1_Q4_01): 2.133 | ES (gene set TBK1DF_DN): 0.434 | NES (gene set TBK1DF_DN): 2.201 | ES [29]: 0.5464 | NES [29]: 2.135 | ES [30]: 0.4808 | NES [30]: 2.25 | ES [31]: 0.4808 | NES [31]: 2.252 | ES [32]: 0.4742 | NES [32]: 2.151 | ES (gene set WINTER_HYPOXIA_UP): 0.5079 | NES (gene set WINTER_HYPOXIA_UP): 2.091 | ES (gene set [?]ENPORAIN_17513976.21_2): 0.5458 | ES [33]: 0.4088 | NES [33]: 2.137 | ES [34]: 0.4474 | NES [34]: 2.256 | ES [35]: 0.4279 | NES [35]: 2.138 | ES [36]: 0.3777 | NES [36]: 2.125 | ES [37]: 0.4908 | NES [37]: 2.191 | ES [38]: 0.396 | NES [38]: 2.222 | ES (gene set [?]_[?]1): 0.4368 | NES (gene set [?]_[?]1): 2.127 | ES (gene set [?]_[?]_Q6): 0.372 | NES (gene set [?]_[?]_Q6): 2.07 | ES [39]: 0.4325 | NES [39]: 2.066 | ES [40]: 0.4046 | NES [40]: 2.198
